Test system: RNA isoforms in PNN 1-46 SMA type I patient-derived fibroblasts
Assay: RNA Abundance Modulation (RNA isoform abundance, iFPM, HiSeq RNA sequencing)
Format: cell-based, human
Conditions: for RNA abundance modulation (effect on isoform fold increase): 24 hrs, PNN 1-46 fibroblasts
Procedure: Cells from a cell line of interest are cultured in conditions sufficient to yield the number of cells capable of generating enough RNA for subsequent sequencing steps. Cells from the tested cell line are contacted with a compound described herein.
To culture said cells, they are seeded, at appropriate concentrations in a volume of media in a cell culture container and incubated for 4, 5, 6, 7, 8, 9, 10, or more hours. A concentrated solution of compound in a vehicle (e.g., DMSO) is then added in sufficient volume to result in the intended final concentration of the compound, for example 100 nM, 500 nM, 1 μM, 5 μM, 10 μM, 15 μM, 20 μM, or more. The cells may also be treated with vehicle alone, as a control. A number of replicates of each concentration or control may be made (e.g., 2 replicates). The cells are then incubated at a constant temperature appropriate for cell culture of the particular cell line (e.g., 37° C.) for 6, 12, 18, 24, 48, or more hours. After incubation, the growth medium is removed and the cells are washed with the appropriate buffer (e.g., PBS). Cells are then removed from adherence to the cell culture container by treatment with a solution containing trypsin, and the trypsin subsequently quenched with the appropriate volume of buffer (e.g., DMEM-FBS). The cells are then pelleted with gentle centrifugation (e.g., ≤90×g centrifugal force) and resuspended in a buffer to lyse the cells for extraction of RNA. The cell lysates may then be frozen (e.g., at −80° C.) or, alternately, may immediately be used in a procedure to purify the RNA (e.g. by use of the RNEASY PLUS® minikit). The RNA from cell lysates is eluted in the appropriate volume of buffer (e.g., RNEASE-FREE H2O®). The resulting purified RNA may then be sequenced (e.g., using RNASeq) or analyzed using a human exon array (e.g., by GENECHIP® human exon array) to determine changes in the RNA levels in those cells treated with compound compared to those cells treated only with DMSO. The purified RNA may also be quantified by other methods known in the art.
Using the RNA data obtained from sequencing, exon array, or other methods, a statistical analysis can reveal changes in the RNA levels of compound-treated compared with control. For example, t-test p-values may be calculated for the data obtained through sequencing and exon array methods in order to compare compound-treated cells to those treated with the DMSO control. […] Analysis of the sequencing and exon array data may then also yield predictions about the cause of the aberrant amount of an RNA transcript in the cells (e.g., perturbation of RNA splicing, RNA transcription, or RNA stability). These predictions may be further confirmed by methods known in the art. For example, RT-PCR and RT-qPCR may be used to confirm the change in amount of RNA transcripts for one or more particular transcripts of interest.
Following the methods described above in Example 1, PNN 1-46 SMA type I patient-derived fibroblasts were treated with 300 nM or 3 μM Compounds 774 and 808 in 0.5% DMSO.
700,000 cells were seeded in 10 mL of medium (DMEM plus 10% FBS) in a T-75 flask. Cells were allowed to attach for at least 4 hrs, after which 50 μL of a 200× compound solution (100% DMSO) was added to each well, and the plate was incubated at 37° C. for 24 hrs.
At the end of the incubation period, the supernatant was removed and the cells where washed with PBS. TrypLE (Invitrogen) express solution was added (e.g. 1.5 mL per one T75 flask). The flasks were incubated for 3 to 5 min at 37° C. The trypsin was then quenched, e.g., by adding 10 mL DMEM-FBS.
Next, the cells were pelleted using gentle centrifugation without exceeding 90×g centrifugal force. The supernatant was removed and the cell pellet was re-suspended in 600 μL RLT buffer (the RLT buffer was supplemented with beta-mercaptoethanol according to the RNeasy protocol manual) by pipetting up and down until the pellet was completely dissolved […]

Question: Which results are given for CCc1nc(C)cn2nc(-c3cc(=O)n4cc(C5CCN(C)CC5)cc(C)c4n3)cc12 [Compound 774]?
Answer: RNA abundance modulation (effect on isoform fold increase) (0.3 μM): modulates RNA abundance; RNA abundance modulation (effect on isoform fold increase) (3 μM): modulates RNA abundance; FC (x + 1) (TACC1 NM_006283, 3 μM): 1.1645; L2FC (x + 1) (TACC1 NM_006283, 3 μM): 0.220; L2abs (Cpd-DMSO) (TACC1 NM_006283, 3 μM): 8.47; abs (Cpd-DMSO) (TACC1 NM_006283, 3 μM): 354 iFPM; amp FC (x + 1) (TACC1 NM_006283, 3 μM): 1.16; ave Cpd (TACC1 NM_006283, 3 μM): 2506 iFPM; FC (x + 1) (TAF2 NM_003184, 3 μM): 0.4533; L2FC (x + 1) (TAF2 NM_003184, 3 μM): −1.141; L2abs (Cpd-DMSO) (TAF2 NM_003184, 3 μM): 9.75; abs (Cpd-DMSO) (TAF2 NM_003184, 3 μM): 862 iFPM; amp FC (x + 1) (TAF2 NM_003184, 3 μM): 2.21; ave Cpd (TAF2 NM_003184, 3 μM): 714 iFPM; FC (x + 1) (TANC2 AJ278120, 3 μM): 1.0181; L2FC (x + 1) (TANC2 AJ278120, 3 μM): 0.026; L2abs (Cpd-DMSO) (TANC2 AJ278120, 3 μM): 1.28; abs (Cpd-DMSO) (TANC2 AJ278120, 3 μM): 2 iFPM; amp FC (x + 1) (TANC2 AJ278120, 3 μM): 1.02; ave Cpd (TANC2 AJ278120, 3 μM): 136 iFPM; FC (x + 1) (TANC2 AK001077, 3 μM): 4.5130; L2FC (x + 1) (TANC2 AK001077, 3 μM): 2.174; L2abs (Cpd-DMSO) (TANC2 AK001077, 3 μM): 1.81; abs (Cpd-DMSO) (TANC2 AK001077, 3 μM): 4 iFPM; amp FC (x + 1) (TANC2 AK001077, 3 μM): 4.51; ave Cpd (TANC2 AK001077, 3 μM): 4 iFPM; FC (x + 1) (TANC2 AK021886, 3 μM): 0.4015; L2FC (x + 1) (TANC2 AK021886, 3 μM): −1.317; L2abs (Cpd-DMSO) (TANC2 AK021886, 3 μM): 2.40; abs (Cpd-DMSO) (TANC2 AK021886, 3 μM): 5 iFPM; amp FC (x + 1) (TANC2 AK021886, 3 μM): 2.49; ave Cpd (TANC2 AK021886, 3 μM): 3 iFPM; FC (x + 1) (TANC2 BC144357, 3 μM): 0.3363; L2FC (x + 1) (TANC2 BC144357, 3 μM): −1.572; L2abs (Cpd-DMSO) (TANC2 BC144357, 3 μM): 8.29; abs (Cpd-DMSO) (TANC2 BC144357, 3 μM): 313 iFPM; amp FC (x + 1) (TANC2 BC144357, 3 μM): 2.97; ave Cpd (TANC2 BC144357, 3 μM): 158 iFPM; FC (x + 1) (TANC2 NM_025185, 3 μM): 1.0124; L2FC (x + 1) (TANC2 NM_025185, 3 μM): 0.018; L2abs (Cpd-DMSO) (TANC2 NM_025185, 3 μM): 4.47; abs (Cpd-DMSO) (TANC2 NM_025185, 3 μM): 22 iFPM; amp FC (x + 1) (TANC2 NM_025185, 3 μM): 1.01; ave Cpd (TANC2 NM_025185, 3 μM): 1812 iFPM; FC (x + 1) (TARBP1 NM_005646, 3 μM): 0.1192; L2FC (x + 1) (TARBP1 NM_005646, 3 μM): −3.068; L2abs (Cpd-DMSO) (TARBP1 NM_005646, 3 μM): 8.52; abs (Cpd-DMSO) (TARBP1 NM_005646, 3 μM): 367 iFPM; amp FC (x + 1) (TARBP1 NM_005646, 3 μM): 8.39; ave Cpd (TARBP1 NM_005646, 3 μM): 49 iFPM; FC (x + 1) (TBC1D15 AK307922, 3 μM): 1.0252; L2FC (x + 1) (TBC1D15 AK307922, 3 μM): 0.036; L2abs (Cpd-DMSO) (TBC1D15 AK307922, 3 μM): 2.70; abs (Cpd-DMSO) (TBC1D15 AK307922, 3 μM): 6 iFPM; amp FC (x + 1) (TBC1D15 AK307922, 3 μM): 1.03; ave Cpd (TBC1D15 AK307922, 3 μM): 263 iFPM; FC (x + 1) (TBC1D15 NM_022771, 3 μM): 1.1954; L2FC (x + 1) (TBC1D15 NM_022771, 3 μM): 0.257; L2abs (Cpd-DMSO) (TBC1D15 NM_022771, 3 μM): 3.99; abs (Cpd-DMSO) (TBC1D15 NM_022771, 3 μM): 16 iFPM; amp FC (x + 1) (TBC1D15 NM_022771, 3 μM): 1.20; ave Cpd (TBC1D15 NM_022771, 3 μM): 96 iFPM; FC (x + 1) (TBC1D15 NM_001146213, 3 μM): 1.4119; L2FC (x + 1) (TBC1D15 NM_001146213, 3 μM): 0.498; L2abs (Cpd-DMSO) (TBC1D15 NM_001146213, 3 μM): 8.07; abs (Cpd-DMSO) (TBC1D15 NM_001146213, 3 μM): 270 iFPM; amp FC (x + 1) (TBC1D15 NM_001146213, 3 μM): 1.41; ave Cpd (TBC1D15 NM_001146213, 3 μM): 923 iFPM; FC (x + 1) (TBC1D15 NM_001146214, 3 μM): 1.0153; L2FC (x + 1) (TBC1D15 NM_001146214, 3 μM): 0.022; L2abs (Cpd-DMSO) (TBC1D15 NM_001146214, 3 μM): −0.65; abs (Cpd-DMSO) (TBC1D15 NM_001146214, 3 μM): 1 iFPM; amp FC (x + 1) (TBC1D15 NM_001146214, 3 μM): 1.02; ave Cpd (TBC1D15 NM_001146214, 3 μM): 41 iFPM; FC (x + 1) (TBC1D15 NR_027449, 3 μM): 0.1625
